Key:
[1] = human
[2] = human; remark: listed apart in the source
[3] = human, serum
[4] = human, serum, 4383 h
[5] = human; remark: listed apart in the source
[6] = human; remark: listed apart in the source
[7] = human; remark: listed apart in the source
[8] = human; remark: listed apart in the source
[9] = human; remark: listed apart in the source
[10] = Highest frequency of acute liver toxicity observed during clinical trials, expressed as a percentage. [column '% AIGUE' in source]; conditions: human
[11] = human; remark: listed apart in the source
[12] = human, serum; remark: listed apart in the source
[13] = human; remark: listed apart in the source
[14] = Times to onset, minimal and maximal, observed in the indexed observations. [column 'DELAI' in source]; conditions: human
[15] = Highest frequency of moderate liver toxicity observed during clinical trials, expressed as a percentage. [column '% BIOL' in source]; conditions: human
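For Hepatotoxicity (association with vascular disease) in this document: count of indexed literature references reporting vascular liver injury in humans, e.g. peliosis hepatitis, hepatic veno-occlusive disease or Budd-Chiari syndrome.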
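For Hepatotoxicity (benign tumour) in this document: value is a count of indexed literature references citing a benign tumour confirmed by histopathology.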
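For Hepatotoxicity (choleostasis) in this document: human cholestatic liver injury, shown by histopathology or by peak ALT or AST elevation over alkaline phosphatase ratio below 2, value counts indexed literature reports.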
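For Hepatotoxicity (chronic liver disease) in this document: chronic liver injury confirmed by histopathology or persistently raised serum aminotransferase activity beyond 6 months, value given as the count of indexed literature references.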
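For Hepatotoxicity (cirrhosis) in this document: value is a count of indexed literature references reporting cirrhosis confirmed by histopathology.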
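For Hepatotoxicity (cytolytic) in this document: human cytolytic liver injury, shown by histopathology or by a ratio above 5 of peak ALT or AST elevation to alkaline phosphatase elevation, value counts indexed references.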
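For Hepatotoxicity (granulomatous hepatitis) in this document: value is a count of indexed literature references reporting granulomatous liver disease confirmed by histopathology.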
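For Hepatotoxicity (malignant tumour) in this document: malignant tumour confirmed by histopathology, value gives the count of indexed literature references reporting it.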
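For Hepatotoxicity (severe hepatitis) in this document: human clinical data: severe hepatitis, meaning potentially life-threatening liver failure or clinically observed cases, the value counts how many indexed literature references report it.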
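For Hepatotoxicity (steatosis) in this document: steatosis confirmed by histopathology, value is the count of indexed references.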

SMILES	Hepatotoxicity (choleostasis) [1]	Hepatotoxicity (severe hepatitis) [2]	Hepatotoxicity (moderate) [3]	Hepatotoxicity (chronic liver disease) [4]	Hepatotoxicity (benign tumour) [5]	Hepatotoxicity (granulomatous hepatitis) [6]	Hepatotoxicity (cytolytic) [7]	Hepatotoxicity (cirrhosis) [8]	Hepatotoxicity (association with vascular disease) [9]	Hepatotoxicity (acute) [10]	Hepatotoxicity (steatosis) [11]	Hepatotoxicity (acute) [12]	Hepatotoxicity (malignant tumour) [13]	Hepatotoxicity (time to onset) [14]	Hepatotoxicity (moderate) [15]	Hepatotoxicity (severe hepatitis) ([2]; Liver)	Hepatotoxicity (acute) ([10]; Liver)	Hepatotoxicity (moderate) ([15]; Liver)
CCN(CCO)CCCC(C)Nc1ccnc2cc(Cl)ccc12 (stereo not given) [HYDROXYCHLOROQUINE]	1	1	1	0	0	0	1	0	0	5.3%	0	2	0	1 year	11.1%			
CN(C)[C@@H]1C(O)=C(C(=O)NCNCCCC[C@H](N)C(=O)O)C(=O)[C@@]2(O)C(O)=C3C(=O)c4c(O)cccc4[C@@](C)(O)[C@H]3C[C@@H]12 [LYMECYCLINE]	0	0	0	0	0	0	1	0	0	0%	0	1	0	2.4 years	0%			
N[C@@H]1[C@H]2CN(c3nc4c(cc3F)c(=O)c(C(=O)O)cn4-c3ccc(F)cc3F)C[C@@H]12 [TROVAFLOXACIN]	1		4	0	0	0	6	0	0		0	6	0	5 days - 4 weeks		1	0%	2.3%
COc1ccc(OC[C@H]2CN(C)CC[C@@H]2c2ccccc2)cc1 [FEMOXETINE]	0	1	0	0	0	0	1	0	0	0%	0	1	0	5 months	0%			
CCCCC(=O)N(Cc1ccc(-c2ccccc2-c2nnn[nH]2)cc1)[C@H](C(=O)O)C(C)C	1	1	2	0	0	0	1	0	0	0%	0	3	0	1 month - 4.5 months	0%			
CN1c2c(oc(=O)n(-c3ccccn3)c2=O)-c2ccccc2S1(=O)=O [DROXICAM]	6	0	0	0	0	1	4	0	0	> 0%	0	7	0	10 days - 7 weeks	0%			
CC(=O)Nc1ccc(OC(=O)c2ccccc2OC(C)=O)cc1 [BENORILATE]	0	1	0	0	0	0	2	0	0	0%	0	2	0	3 weeks	0%			
CCCCN/C(=C1/C=C(Cl)C=CC1=O)c1ccccc1Cl	0	0	1	0	0	0	0	0	0	0%	0	1	0	1 month	54.5%			
CN1CCN(C(=O)OC2c3nccnc3C(=O)N2c2ccc(Cl)cn2)CC1 (stereo not given) [ZOPICLONE]	1	0	0	0	0	0	1	0	0	0%	0	1	0	6 months	0%			
C=CC1=C(C(=O)O)N2C(=O)[C@@H](NC(=O)/C(=N\O)c3csc(N)n3)[C@H]2SC1	0	0	43	0	0	1	0	0	0	0%	0	1	0	2 days	28.6%			
C[C@H](O)C(=O)Nc1c(I)c(C(=O)NC(CO)CO)c(I)c(C(=O)NC(CO)CO)c1I [IOPAMIDOL]	0	1	0	0	0	0	1	0	0	0%	0	1	0	0.021 days	0%			

From ChEMBL document CHEMBL3137667, “[Drug-induced liver injury; fourteenth updated edition of the bibliographic database of liver injuries and related drugs]” (Gastroenterol Clin Biol, 2004)
